Test system: COVID-19
Experiment: Clinical trials/studies: case reports of ye-[…] in people with COVID-19
Assay type: in vivo
Settings: case 2: taken before ye-COVIDICIN; they got worse

## CCN(CCO)CCCC(C)Nc1ccnc2cc(Cl)ccc12 (stereo not shown) [Hydroxychloroquine]
  Effect on COVID-19 in patient: did not work

— patent publication US20210401773A1 (priority 2020, published 2021)
